The subject of assay [1] is sialidase of influenza A virus A/Duck/313/78 (H5N3). The format is biochemical. Particulars: pH 6; read-out: Viral sialidase inhibition (IC50) H5N3.
Assay [2] concerns the target human sialidase NEU2. Particulars: previously reported; ref [39]; read-out: Human sialidase inhibition (IC50) NEU2; cited from earlier work.
Assay [3] has as its target T1, sialidase of influenza A virus A/Memphis/1/71 (H3N2) (Influenza A virus, UniProt P03475).
T1 construct: preincubated with 5 μL of the virus containing 2 enzyme units; host or cells: whole virus preparation
Put plainly: biochemical.

Assay [4] deals with T2, sialidase of influenza A virus A/PR/8/34 (H1N1) (Influenza A virus, UniProt P03468).
T2 construct: preincubated with 5 μL of the virus containing 2 enzyme units; host or cells: whole virus preparation
The assay can be described thus: biochemical.

In assay [5] the target is human sialidase NEU1. To be noted: previously reported; ref [39]; read-out: Human sialidase inhibition (IC50) NEU1; cited from earlier work.
In assay [6] the target is human sialidase NEU3. Particulars: previously reported; ref [39]; read-out: Human sialidase inhibition (IC50) NEU3; cited from earlier work.
For assay [7], the target named is human sialidase NEU4. Particulars: previously reported; ref [39]; read-out: Human sialidase inhibition (IC50) NEU4; cited from earlier work.

T2 sequence (P03468 whole entry): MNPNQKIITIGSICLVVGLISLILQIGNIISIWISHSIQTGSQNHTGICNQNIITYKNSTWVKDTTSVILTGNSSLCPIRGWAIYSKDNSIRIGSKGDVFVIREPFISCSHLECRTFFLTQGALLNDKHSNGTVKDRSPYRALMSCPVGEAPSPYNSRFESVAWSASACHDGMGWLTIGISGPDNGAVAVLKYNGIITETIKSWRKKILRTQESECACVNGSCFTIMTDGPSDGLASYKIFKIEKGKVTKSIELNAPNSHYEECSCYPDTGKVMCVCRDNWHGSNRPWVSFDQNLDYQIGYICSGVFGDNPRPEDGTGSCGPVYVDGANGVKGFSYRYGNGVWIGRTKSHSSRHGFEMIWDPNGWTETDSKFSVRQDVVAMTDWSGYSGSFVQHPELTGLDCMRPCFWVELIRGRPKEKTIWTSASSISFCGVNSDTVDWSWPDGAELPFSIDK
T1 sequence (P03475 whole entry): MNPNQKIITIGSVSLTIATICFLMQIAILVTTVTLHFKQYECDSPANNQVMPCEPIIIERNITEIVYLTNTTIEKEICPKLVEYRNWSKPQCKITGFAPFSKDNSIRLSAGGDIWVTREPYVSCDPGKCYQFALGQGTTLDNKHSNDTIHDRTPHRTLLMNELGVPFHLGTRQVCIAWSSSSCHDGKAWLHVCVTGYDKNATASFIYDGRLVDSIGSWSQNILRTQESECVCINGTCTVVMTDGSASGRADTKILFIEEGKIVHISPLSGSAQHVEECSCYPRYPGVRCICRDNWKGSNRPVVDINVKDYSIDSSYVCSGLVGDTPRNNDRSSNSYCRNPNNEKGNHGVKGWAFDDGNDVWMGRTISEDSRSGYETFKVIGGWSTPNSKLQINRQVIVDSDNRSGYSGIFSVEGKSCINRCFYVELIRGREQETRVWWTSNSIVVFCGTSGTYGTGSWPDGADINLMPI

Turning to `CC(=O)N[C@@H]1[C@@H]([C@H](O)[C@H](O)CNC(=O)C2CC2)OC(C(=O)O)=C[C@H]1O` [Compound 8], the half-inhibitory concentration (IC50) in assay [1] was 98 µM; in assay [2], more than 1000 µM; in assay [3], 16 µM; in assay [4], 9 µM; in assay [5], 680 µM; in assay [6], more than 1000 µM. In addition, the half-inhibitory concentration (IC50) in assay [7] is 825 µM.
As for `CC(=O)NC[C@@H](O)[C@@H](O)[C@H]1OC(C(=O)O)=C[C@@H](O)[C@@H]1NC(C)=O` [Compound 5], the concentration for half-maximal inhibition (IC50) was 97 µM in assay [1]; more than 1000 µM in assay [2]; 34 µM in assay [3]; 22 µM in assay [4]; 58 µM in assay [5]; more than 1000 µM in assay [6]. Also, the IC50 in assay [7] is 580 µM.
Consider `CCC(C)C(=O)NC[C@@H](O)[C@@H](O)[C@@H]1OC(C(=O)O)=C[C@H](O)[C@H]1NC(C)=O` (some centres unmarked) [Compound 10], for which the values for the IC50 in assay [1], in assay [3] and in assay [4] were more than 1000 µM, more than 1000 µM and 59 µM, respectively.
As for `CCCCC(=O)NC[C@@H](O)[C@@H](O)[C@H]1OC(C(=O)O)=C[C@@H](O)[C@@H]1NC(C)=O` [Compound 12], the IC50 in assay [1] is more than 1000 µM; in assay [3] it was 159 µM; in assay [4] it was 34 µM.
With `CC(=O)N[C@@H]1[C@@H]([C@H](O)[C@H](O)CNC(=O)C2CCCC2)OC(C(=O)O)=C[C@H]1O` [Compound 7], the values for the IC50 in assay [1], in assay [3] and in assay [4] were more than 1000 µM, more than 1000 µM and 850 µM, respectively.
Take `CC(=O)N[C@@H]1[C@@H]([C@H](O)[C@H](O)CNC(=O)c2ccccc2)OC(C(=O)O)=C[C@H]1O` [Compound 6]: the half-inhibitory concentration (IC50) in assay [1], in assay [3] and in assay [4] was more than 1000 µM throughout.
Consider `CCC(CC)C(=O)NC[C@@H](O)[C@@H](O)[C@@H]1OC(C(=O)O)=C[C@H](O)[C@H]1NC(C)=O` [Compound 14], for which the IC50 in assay [1] was more than 1000 µM; in assay [3] it was more than 1000 µM; in assay [4] it was 698 µM.
As for `CCCC(=O)NC[C@@H](O)[C@@H](O)[C@H]1OC(C(=O)O)=C[C@@H](O)[C@@H]1NC(C)=O` [Compound 9], the results for the IC50 in assay [3] and in assay [4] were 559 µM and 97 µM, respectively.
Take `CC(=O)N[C@@H]1[C@@H]([C@H](O)[C@H](O)CNC(=O)C(C)C)OC(C(=O)O)=C[C@H]1O` [Compound 11]: the half-inhibitory concentration (IC50) is more than 1000 µM in assay [1], 680 µM in assay [3] and 54 µM in assay [4].
For the compound `CC(=O)N[C@@H]1[C@@H]([C@H](O)[C@H](O)CNC(=O)C(C)(C)C)OC(C(=O)O)=C[C@H]1O` [Compound 13], the figures for the IC50 in assay [1], in assay [3] and in assay [4] were more than 1000 µM, 770 µM and 78 µM, respectively.
Turning to `CC(=O)N[C@H]1[C@H]([C@H](O)[C@H](O)CO)OC(C(=O)O)=C[C@@H]1O` [DANA, 5-acetamido-2,6-anhydro-3,5-dideoxy-D-glycero-D-galacto-non-2-enonic acid, reference compound], the IC50 in assay [1] was 11 µM; in assay [3], 9 µM; in assay [6], 61 µM; in assay [7], 74 µM.

In general, IC50 refers to the concentration at which inhibition is half-maximal.

The record behind these values is publication PMC4971745, “Evaluation of a Set of C9 N-acyl Neu5Ac2en Mimetics as Viral Sialidase Selective Inhibitors” (International Journal of Medicinal Chemistry, 2010).
